Active and inactive are the calls of the source. For most assays here, no stated cut-off is given here; in the data, actives have a measured EC50 and inactives only a lower limit.
Assays:
[1] = target: T1, Rac GTPase-activating protein 1 (Homo sapiens, UniProt Q9H0H5); assay: MgcRacGAP GTPase-activating activity inhibitors, confirmation, biochemical, ADP Hunter fluorescence, primary and confirmatory (AID 624330); assay type: functional
T1 sequence (Q9H0H5 whole entry): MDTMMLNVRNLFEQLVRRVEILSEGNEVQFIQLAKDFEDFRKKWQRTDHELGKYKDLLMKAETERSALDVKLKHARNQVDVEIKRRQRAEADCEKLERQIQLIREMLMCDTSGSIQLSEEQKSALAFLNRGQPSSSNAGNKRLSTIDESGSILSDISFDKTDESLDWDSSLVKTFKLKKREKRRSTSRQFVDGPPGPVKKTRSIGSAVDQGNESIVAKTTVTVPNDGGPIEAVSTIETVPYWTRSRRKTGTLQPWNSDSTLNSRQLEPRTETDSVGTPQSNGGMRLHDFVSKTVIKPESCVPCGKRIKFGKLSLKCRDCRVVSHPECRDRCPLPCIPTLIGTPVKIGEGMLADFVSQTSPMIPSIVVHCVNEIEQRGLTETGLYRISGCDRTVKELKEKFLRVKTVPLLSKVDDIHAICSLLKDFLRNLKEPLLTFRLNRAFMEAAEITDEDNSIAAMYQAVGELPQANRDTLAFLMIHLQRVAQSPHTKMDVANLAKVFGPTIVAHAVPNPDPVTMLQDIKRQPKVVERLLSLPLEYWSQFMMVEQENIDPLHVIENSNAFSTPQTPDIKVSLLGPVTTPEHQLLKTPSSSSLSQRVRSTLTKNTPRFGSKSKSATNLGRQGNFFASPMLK

[2] = Luminescence Cell-Based Dose Response HTS to Identify Inhibitors of 5'UTR Stem-Loop Driven Prion Protein mRNA Translation in H4 Neuroglioblastoma Cells. [Related pubchem assays: 1827 (Project Summary), 1813 (Primary HTS)]; assay type: functional
[3] = inhibitors of SNCA 5'UTR-driven reporter translation, confirmation, H4 neuroglioma cells, luminescence (AID 1988); assay type: functional, cell-based
[4] = inhibitors of firefly luciferase expression or activity, dose response, H4 neuroglioma cells, luminescence (AID 1990); assay type: functional, cell-based
[5] = HEp-2 cell cytotoxicity, dose response, cytotoxicity control for RSV inhibitor project, HTS (AID 2410); assay type: functional; details: human respiratory syncytial virus
[6] = Luminescence Cell-Based Dose Retest to Confirm Inhibitors of Cancer Stem Cells. [Related pubchem assays (depositor defined):AID2717, AID2721]; assay type: functional; details: Homo sapiens
Streptococcus = assay: Group A Streptococcus viability loss, dose response, counter-screen for streptokinase expression inhibitor project, luminescence, BacTiterGlo (AID 1915); assay type: functional, organism-based;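 further: potency for reduction of bacterial viability or growth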
[7] = test system: Streptococcus sp. 'group A'; assay: growth inhibition of control SK(-) GAS strain, dose response, counter-screen for streptokinase expression inhibitor project, luminescence, kanamycin, BacTiterGlo, confirmation (AID 1900); assay type: functional, organism-based
[8] = inhibitors of intracellular T. cruzi replication, confirmation, NIH3T3 host cells, beta-gal luminescence (AID 2044); assay type: functional, cell-based;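 further: intracellular parasites grown in NIH/3T3 mouse fibroblasts as host cells; luminescent beta-galactosidase reporter signal from transgenic T. cruzi replicating inside host cells; inhibitors lower the luminescence signal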
[9] = cytotoxicity toward NIH3T3 fibroblasts, dose response, counter-screen, cell-based, ATP luminescence, mouse fibroblasts (AID 2010); assay type: functional;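 further: cells exposed to compound for about 90 hours before reading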
[10] = NIH-3T3 fibroblast cytotoxicity, dose response, cytotoxicity control, cell-based, fluorescence, Alamar Blue, secondary assay (AID 2327); assay type: functional;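 further: NIH-3T3 mouse fibroblasts cultured with fluconazole at 8 µg/mL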
INS1 = assay: beta cell apoptosis inhibitors, cytokine rescue, dose response, luminescence, retest (AID 449756); assay type: functional, cell-based; details: Rattus norvegicus;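 further: cell death triggered by IL-1 beta plus TNF-alpha plus IFN-gamma mixture; protective hits raise ATP signal compared with cytokine alone wells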
[11] = Luminescence Cell-Based Dose Confirmation HTS to Identify Activators of 5'UTR Stem-Loop Driven Alpha-Synuclein mRNA Translation in H4 Neuroglioblastoma Cells. [Related pubchem assays: 1829 (Project Summary), 1814 (Primary HTS)]; assay type: functional
H4 = assay: Luminescence Cell-Based Dose Response HTS to Identify Activators of 5'UTR Stem-Loop Driven Prion Protein mRNA Translation in H4 Neuroglioblastoma Cells. [Related pubchem assays: 1829 (Project Summary), 1814 (Primary HTS)]; assay type: functional; details: Homo sapiens
[12] = Luminescence Cell-Based Dose Response HTS to Identify Activators of Luciferase Translation or Activity in H4 […] Cells. [Related pubchem assays: 1829 (Project Summary), 1814 (Primary HTS)]; assay type: functional
H9c2 = assay: cells; assay type: functional, cell-based; details: Rattus norvegicus, H9c2, Myocardium;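 further: confirmatory concentration-response retest of ultra-high-throughput screening hits for modulation of myocardial damage; cell death induced by hydrogen peroxide oxidative stress; compound pretreatment for 60 min then peroxide exposure for 2 h; potency is for protecting the cells against peroxide damage rather than for killing them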
[13] = target: T2, Replicative DNA helicase DnaB (Mycobacterium tuberculosis, UniProt P9WMR3); assay: DnaB intein splicing inhibitors, dose response, biochemical, cell-free fluorescence (AID 449749); assay type: functional
T2 sequence (P9WMR3 whole entry): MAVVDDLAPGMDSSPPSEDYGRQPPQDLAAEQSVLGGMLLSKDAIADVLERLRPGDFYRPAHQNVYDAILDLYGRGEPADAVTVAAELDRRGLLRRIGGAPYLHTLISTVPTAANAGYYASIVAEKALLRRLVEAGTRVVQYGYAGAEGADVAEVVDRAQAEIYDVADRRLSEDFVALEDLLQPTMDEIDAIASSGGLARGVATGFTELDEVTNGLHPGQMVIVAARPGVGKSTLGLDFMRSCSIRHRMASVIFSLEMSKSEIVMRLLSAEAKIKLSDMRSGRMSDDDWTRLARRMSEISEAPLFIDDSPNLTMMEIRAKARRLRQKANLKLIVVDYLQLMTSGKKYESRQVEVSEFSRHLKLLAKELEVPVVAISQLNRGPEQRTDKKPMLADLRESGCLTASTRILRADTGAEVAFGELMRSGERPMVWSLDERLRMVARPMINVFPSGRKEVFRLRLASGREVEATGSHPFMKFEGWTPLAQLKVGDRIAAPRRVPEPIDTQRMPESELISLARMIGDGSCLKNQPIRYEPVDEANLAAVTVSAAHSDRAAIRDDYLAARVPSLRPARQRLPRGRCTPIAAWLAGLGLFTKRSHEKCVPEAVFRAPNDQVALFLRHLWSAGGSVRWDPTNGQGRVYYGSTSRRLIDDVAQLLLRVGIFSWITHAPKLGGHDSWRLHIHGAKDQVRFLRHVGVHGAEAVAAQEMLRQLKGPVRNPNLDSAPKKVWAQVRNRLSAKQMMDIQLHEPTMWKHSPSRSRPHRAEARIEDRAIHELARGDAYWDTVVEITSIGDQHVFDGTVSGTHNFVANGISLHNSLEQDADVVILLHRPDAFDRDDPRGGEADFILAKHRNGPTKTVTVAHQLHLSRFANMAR

Protein RecA = target: T3, Protein RecA (Mycobacterium tuberculosis, UniProt P9WHJ3); assay: Fluorescence Cell-Free Homogeneous Dose Retest to Identify Inhibitors of RecA-Intein Splicing Activity. [Related pubchem assays (depositor defined):AID2097, AID2223, AID489010, AID492950]; assay type: functional
T3 sequence (P9WHJ3 whole entry): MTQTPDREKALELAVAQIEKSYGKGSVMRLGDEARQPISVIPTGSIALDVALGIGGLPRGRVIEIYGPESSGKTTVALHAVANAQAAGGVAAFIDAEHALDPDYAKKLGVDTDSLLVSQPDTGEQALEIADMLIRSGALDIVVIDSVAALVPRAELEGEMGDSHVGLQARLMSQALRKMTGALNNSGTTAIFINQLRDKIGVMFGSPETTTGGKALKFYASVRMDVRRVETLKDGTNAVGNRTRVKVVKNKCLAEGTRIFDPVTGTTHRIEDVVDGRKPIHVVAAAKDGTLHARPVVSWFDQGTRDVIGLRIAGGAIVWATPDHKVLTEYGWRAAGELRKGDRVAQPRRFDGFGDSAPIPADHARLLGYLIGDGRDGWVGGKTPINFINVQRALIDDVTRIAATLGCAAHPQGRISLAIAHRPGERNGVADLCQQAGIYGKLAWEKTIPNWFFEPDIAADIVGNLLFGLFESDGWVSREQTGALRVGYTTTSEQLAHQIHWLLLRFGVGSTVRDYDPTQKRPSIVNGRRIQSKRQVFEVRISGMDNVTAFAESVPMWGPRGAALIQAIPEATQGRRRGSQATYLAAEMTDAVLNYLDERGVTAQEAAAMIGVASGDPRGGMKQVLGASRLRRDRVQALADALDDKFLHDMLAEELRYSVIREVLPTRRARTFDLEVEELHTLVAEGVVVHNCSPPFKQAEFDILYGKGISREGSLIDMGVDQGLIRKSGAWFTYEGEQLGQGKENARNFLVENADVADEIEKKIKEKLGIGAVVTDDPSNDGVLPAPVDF

CC(=O)c1c(C)c(C)c2n1CCn1c(C)ccc1-2
IC50 [1]: 29 µM (active)

Cc1ccc(NC(=O)CN(C)CC(=O)Nc2ccc(F)c(F)c2F)c(Cl)c1
EC50 [2]: > 120 µM (not active) | EC50 [3]: > 120 µM (not active) | EC50 [4]: > 120 µM (not active)

COC(=O)c1c(NC(=O)CCNCc2ccco2)sc2c1CCC2
IC50 [1]: 138 µM (active)

COc1ccc(-c2nn(-c3ccccc3)cc2/C=C/C(=O)NCCCn2ccnc2)cc1OC
EC50 [2]: > 120 µM (not active) | EC50 [3]: > 60 µM (not active) | EC50 [4]: > 120 µM (not active)

Cc1ccc(C(=O)Nc2nc(C(C)(C)C)cs2)s1
CC50 [5]: 3.25 µM (active)

CCOC(=O)c1cnc2c(OC)cccc2c1N1CCN(c2ccccc2OC)CC1
EC50 [2]: > 120 µM (not active) | EC50 [3]: 8.6 µM (active) | EC50 [4]: 11.4 µM (active)

C[C@@H]1CN([C@H](C)CO)C(=O)Cc2cc(NS(=O)(=O)c3ccc(Cl)cc3)ccc2O[C@H]1CN(C)Cc1ccc(C(F)(F)F)cc1
AC50 [6]: 3.11 µM (active)

CCOc1ccc(C(=O)Nc2ccc(S(=O)(=O)N3C[C@@H]4C[C@@H](C3)c3cccc(=O)n3C4)cc2)cc1
CC50 [5]: 23.7 µM (active)

O=C(NCc1ccc(F)cc1)C(=O)Nc1nc(C23CC4CC(CC(C4)C2)C3)cs1
EC50 (Streptococcus): 2.55 µM (active) | EC50 [7]: 0.823 µM (active) | AC50 [6]: 1.91 µM (active)

CN(C)c1ccc(/C=C2\CCC/C(=C\c3ccccc3)C2=O)cc1
AC50 [6]: 3.81 µM (active)

COc1ccc(CCNC(=O)c2coc(=O)c(Br)c2)cc1
AC50 [6]: 7.39 µM (active)

Cc1nnc(N2CCC(C(=O)N3CCCCCC3)CC2)c2nn(-c3ccc(Cl)cc3)c(C)c12
CC50 [5]: 21.9 µM (active)

C=CCNC(=O)CN1CCN(C(c2ccccc2)c2ccccc2)CC1
IC50 [1]: 168 µM (active)

CCCCCSc1nc(N2CCOCC2)c2c(c1C#N)CC(C)(C)OC2
EC50 [2]: 19.8 µM (active) | EC50 [3]: > 120 µM (not active) | EC50 [4]: > 120 µM (not active)

Nc1n[nH]c(N)c1N=Nc1ccc2c(c1)OCO2
IC50 [1]: 30.1 µM (active) | EC50 [8]: > 60 µM (not active) | EC50 [9]: > 60 µM (not active)

CN(CC(=O)Nc1cccc(F)c1)C(=O)c1ccc(-c2ccc(Cl)cc2)o1
CC50 [5]: 23.1 µM (active)

Cc1c(Cl)cccc1N=C(S)N(Cc1cccs1)C1CCCC1
EC50 [2]: > 120 µM (not active) | EC50 [3]: > 120 µM (not active) | EC50 [4]: > 120 µM (not active)

CC1=C(C(=O)OC2CCCC2)C(c2coc3ccccc3c2=O)C2=C(O)CC(C)(C)CC2=N1 (centres undefined)
AC50 [6]: 97.3 µM (active)

O=C(CN1CCN(S(=O)(=O)c2ccc3ccccc3c2)CC1)N1CCc2ccccc2C1
EC50 [2]: 23 µM (active) | EC50 [3]: > 120 µM (not active) | EC50 [4]: 14.4 µM (active) | CC50 [5]: 25.3 µM (active)

CCOC(=O)c1c(C)oc2ccc(NS(=O)(=O)c3ccc4c5c(cccc35)C(=O)N4)cc12
CC50 [5]: 7.08 µM (active)

O=C(NN1C(=O)NC2(CCCCC2)C1=O)c1ccc(-c2ccc(Cl)cc2)o1
CC50 [5]: 22.3 µM (active)

COc1ccc(C(=O)NNc2ccccc2)cc1OC
EC50 [10]: 7.89 µM (active) | AC50 [6]: 0.825 µM (active)

O=C(CSC1=N/C(=C/c2ccc(Cl)c(Cl)c2)C(=O)N1c1ccccc1F)NC1CC1
CC50 [5]: 24 µM (active)

Cc1cc(SCC(=O)c2cccs2)n2nc(C)c(-c3ccc(Cl)cc3)c2n1
AC50 [6]: 18.1 µM (active)

Cc1cccc2nc(CSc3nc4nncc-4c(O)n3-c3cccc(Cl)c3)cc(=O)n12
AC50 (INS1): 8.23 µM (active)

COc1cc(/C=C/c2nnc3c4ccccc4ncn23)cc(OC)c1OC
EC50 [11]: 8.84 µM (active) | EC50 (H4): > 120 µM (not active) | EC50 [12]: 29.1 µM (active) | IC50 (H9c2): > 79 µM (inactive)

O=C(NCC1COc2ccccc2O1)c1cccc(S(=O)(=O)NCc2ccccc2)c1 (centres undefined)
AC50 (INS1): 8.07 µM (active)

CCOc1cc(C=NNC(=O)c2cccc(S(=O)(=O)N3CCCC3)c2)ccc1O
IC50 [1]: 32.3 µM (active)

COc1nc(N/N=C/c2ccc(-c3ccccc3[N+](=O)[O-])o2)nc(N2CCOCC2)n1
EC50 [11]: 12.4 µM (active) | AC50 [13]: 16 µM (active) | EC50 (H4): 24.7 µM (active) | EC50 (Protein RecA): 14.4 µM (active) | EC50 [12]: 22.5 µM (active)

CC1(C)CC2CC(C)(CN2/C=N/c2sc3c(c2C#N)CC(C)(C)NC3(C)C)C1 (centres undefined)
AC50 [6]: 1.04 µM (active)

CCn1c(C)nc2cc(C(=O)N/N=C/c3ccc(O)cc3)ccc21
IC50 [1]: 66.7 µM (active)

CCCCc1ccc(/C(C)=N/Nc2cc(N3CCOCC3)nc(C)n2)cc1
EC50 [8]: 2.06 µM (active) | AC50 [6]: 3.08 µM (active) | EC50 [9]: > 60 µM (not active)

Source: ChEMBL document CHEMBL1201862, “PubChem BioAssay data set” (2004)
